The source of these data is patent publication US20220079916A1, “USE OF GERANYLFLAVONE A IN PREPARATION OF DRUG FOR PROMOTING HEALING OF WOUNDS” (HANYI BIO-TECHNOLOGY COMPANY LTD., priority 2019, published 2022).

Test [1] deals with whole cortex wound inoculated with Staphylococcus aureus, mice with type II diabetes. Description: Healing of skin wound infected with Staphylococcus aureus (2), comparison with flavonoid controls (Example 4). As to conditions: 10 mg/mouse mixed with 5 mg vaseline, once a day. It is filed as in vivo, mice (C57BL/6). The text has this:
normal mice as control and mice with type II diabetes established according to the method of Example 1 were taken, anesthetized, and then subjected to backside unhairing to establish a whole cortex wound with a 6 mm biopsy puncher. The mice were inoculated with 1.5×10^6 CFU/ml of Staphylococcus aureus. […]
The experimental method was the same as that of Example 3, except that the grouping and administration were as follows:
A normal control group: no administration, 5 mice.
A type II diabetes control group administrated with vaseline: vaseline, 5 mg vaseline/mouse, 5 mice.
A type II diabetes group administrated with vaseline+a drug A: 10 mg/mouse, 10 mice (as a flavonoid control, and the drug A was soybean isoflavones).
A type II diabetes group administrated with vaseline+a drug B: 10 mg/mouse, 10 mice (as a flavonoid control, and the drug B was quercetin).
A type II diabetes group administrated with vaseline+cannflavin A: […], 10 mice.
The aforementioned 5 groups were all inoculated with Staphylococcus aureus according to the previous step (1).
The administration modes of the latter 4 groups were all application onto the wound, and the administration was conducted once a day. In the latter 3 groups, the drug A, the drug B or cannflavin A were respectively well mixed with 5 mg of vaseline as an ointment base and then administered.

In test [2] the test system is whole cortex wound of wild C57 adult male mice. Description: Experiment of skin wound healing (Example 2, wound without bacterial infection). It is filed as in vivo, mice (C57BL/6). To be noted: 10 mg/mouse mixed with 5 mg vaseline. Here is the method: Wild C57 adult male mice (C57BL/6, purchased from Vital River) were taken and anesthetized, and then subjected to backside unhairing to establish a whole cortex wound with a 6 mm biopsy puncher. Attention should be paid to disinfection for preventing infection.
A normal control group: 5 mice, no administration.
A group administrated with vaseline: vaseline (vaseline for medical purpose, purchased from Tianjin Zhiyuan Chemical Reagent Co., Ltd., the same below), 5 mg vaseline/mouse, 5 mice.
A group administrated with A drug A: 10 mg/mouse, 10 mice (as a flavonoid control, and the drug A was soybean isoflavones).
A group administrated with a drug B: 10 mg/mouse, 10 mice (as a flavonoid control, and the drug B was quercetin).
A group administrated with cannflavin A: cannflavin A, 10 mg/mouse, 10 mice. The administration modes of the latter 4 groups were all application onto the wound, and the administration was conducted once a day. Because vaseline was a commonly used ointment base^[8], in the latter 3 groups, the drug A, the drug B or cannflavin A were respectively well mixed with 5 mg of vaseline and then administered.
Photos were taken to record a wound healing condition of mice on days 0, 4 and 7 of administration, and the healing degree of a wound area was calculated by the PhotoShop software with 1 cm^2 as a scale. […]

Regarding `O=c1c(O)c(-c2ccc(O)c(O)c2)oc2cc(O)cc(O)c12` [drug B, quercetin, reference compound], the “help to wound healing” value in test [1] is “could not help wound healing”. For the same molecule, in test [2] (applied onto the wound once a day, normal mice, no infection), the “time in which the wound basically healed” value is “about 4 days”. For the same molecule, in test [2] (once a day, days 0, 4 and 7), the “promoting the healing degree of wounds without bacterial infection, compared among drugs, vaseline and control” value is “no significant difference”.
